For 15 molecules, IC50 results are on record in patent publication US9000025B2, “Autotaxin inhibitors and uses thereof” (Amira Pharmaceuticals, Inc., priority 2010, dated 2015).

Bounds are passed on as bounds.

The test concerns the target T1, autotaxin (ATX) (Homo sapiens, UniProt Q13822).
T1 construct: conditioned medium from the human melanoma cell line, MDA-MB-4355, which endogenously expresses autotaxin; host or cells: MDA-MB-435S human melanoma cells; serum-free conditioned medium, concentrated 20-fold
The test is described as follows: Native Autotaxin Choline Release Assay. The class given is biochemical. Particulars: autotaxin in conditioned medium from human melanoma cell line; choline released from LPC; read-out: MDA-MB-435S Assay IC50. The method, then:
ATX activity is determined by measuring the amount of choline realeased from the substrate, lyosphophatidylcholine (LPC). […] After reaching confluency, the cells are washed twice with phosphate-buffered saline (PBS) then cultured for 48 hours in phenol-red free, serum-free DMEM containing sodium pyruvate. […] 100 μl of a color mix which contains 4.5 mM 4-aminoantipyrine, 2.7 mM N-ethyl-N-(2-hydroxy-3-sulfopropyl)-m-toluidine, 21 units/ml horseradish peroxidase and 3 units/ml choline oxidase in 50 mM Tris, pH 8, 4.5 mM MgCl2 is added and the incubation continued at 37° C. for 10 minutes before reading the absorbance at 555 nm. The concentration of released choline in the sample is determined from a choline standard curve and is equal to the concentration of LPA produced.
On to `CCn1cc(-n2c(C)c(Sc3cccc(C(=O)NS(=O)(=O)c4ccccc4)c3F)c3ccc(Cl)c(F)c32)cn1` [Compound 4-7, N-{3-[6-Chloro-1-(1-ethyl-1H-pyrazol-4-yl)-7-fluoro-2-methyl-1H-indol-3-ylsulfanyl]-2-fluoro-benzoyl}-benzenesulfonamide], for which the IC50 was less than 300 nM. The same measure for `CCn1cc(-n2c(C)c(Sc3cccc(C(=O)NS(C)(=O)=O)c3)c3ccc(Cl)c(F)c32)cn1` [Compound 3-29, N-{3-[6-Chloro-1-(1-ethyl-1H-pyrazol-4-yl)-7-fluoro-2-methyl-1H-indol-3-ylsulfanyl]-benzoyl}-methanesulfonamide]: less than 300 nM; for `Cc1c(Oc2cccc(CC(=O)O)c2)c2ccc(Cl)cc2n1Cc1ccccc1` [Compound 1-16, [3-(1-Benzyl-6-chloro-2-methyl-1H-indol-3-yloxy)-phenyl]-acetic acid]: more than 1000 nM.

As to `CCCn1cc(-n2c(C)c(Sc3cccc(C(=O)O)c3)c3cc(F)c(Cl)cc32)cn1` [Compound 3-27, 3-[6-Chloro-5-fluoro-2-methyl-1-(1-propyl-1H-pyrazol-4-yl)-1H-indol-3-ylsulfanyl]-benzoic acid], the IC50 was less than 300 nM. As to `Cc1cncc(-n2c(C)c(Sc3cccc(CC(=O)O)c3)c3ccc(Cl)cc32)c1` [Compound 1-48, {3-[6-Chloro-2-methyl-1-(5-methyl-pyridin-3-yl)-1H-indol-3-ylsulfanyl]-phenyl}-acetic acid], the IC50 was less than 300 nM. On to `CCCn1cc(-n2c(C)c(Sc3cccc(CC(=O)NS(=O)(=O)c4ccccc4)c3)c3ccc(Cl)cc32)cn1` [Compound 3-55, N-(2-{3-[6-Chloro-2-methyl-1-(1-propyl-1H-pyrazol-4-yl)-1H-indol-3-ylsulfanyl]-phenyl}-acetyl)-benzenesulfonamide], for which the 50% inhibitory concentration (IC50) is less than 300 nM. In the case of `Cc1c(Oc2cccc(CC#N)c2)c2ccc(Cl)cc2n1Cc1ccccc1` [Compound 2-5, [3-(1-Benzyl-6-chloro-2-methyl-1H-indol-3-yloxy)-phenyl]-acetonitrile] it was more than 1000 nM; in that of `Cc1c(Sc2cccc(C(=O)O)c2)c2ccc(Cl)cc2n1-c1cccc(Cl)c1` [Compound 1-29, 3-[6-Chloro-1-(3-chloro-phenyl)-2-methyl-1H-indol-3-ylsulfanyl]-benzoic acid], less than 300 nM.

On to `Cc1c(Sc2cccc(C(=O)O)c2)c2ccc(Cl)c(F)c2n1-c1cnn(C2CCCC2)c1` [Compound 3-35, 3-[6-Chloro-1-(1-cyclopentyl-1H-pyrazol-4-yl)-7-fluoro-2-methyl-1H-indol-3-ylsulfanyl]-benzoic acid], for which the half-inhibitory concentration (IC50) is less than 300 nM. The same measure for `COc1ccc(CC(=O)O)cc1Sc1c(C)n(-c2cnn(C)c2)c2cc(Cl)ccc12` [Compound 1-47, {3-[6-Chloro-2-methyl-1-(1-methyl-1H-pyrazol-4-yl)-1H-indol-3-ylsulfanyl]-4-methoxy-phenyl}-acetic acid]: more than 1000 nM; for `Cc1c(Sc2cccc(C(=O)O)c2)c2ccc(Cc3ccccc3)cc2n1Cc1ccccc1` [Compound 1-13, 3-(1,6-Dibenzyl-2-methyl-1H-indol-3-ylsulfanyl)-benzoic acid]: more than 1000 nM; for `Cc1[nH]c2cc(F)ccc2c1Sc1cccc(CC(=O)O)c1` [Compound 1-2, [3-(6-Fluoro-2-methyl-1H-indol-3-ylsulfanyl)-phenyl]-acetic acid]: more than 1000 nM. The same measure for `Cc1c(Sc2cccc(C(=O)O)c2)c2ccc(Cl)cc2n1-c1ccc(-c2ccccc2)cc1` [Compound 1-27, 3-(1-Biphenyl-4-yl-6-chloro-2-methyl-1H-indol-3-ylsulfanyl)-benzoic acid]: 300 to 1000 nM. The same measure for `Cc1c(Sc2cccc(C(=O)O)c2)c2ccc(Cl)c(F)c2n1-c1cnn(C)c1` [Compound 3-57, 3-[6-Chloro-7-fluoro-2-methyl-1-(1-methyl-1H-pyrazol-4-yl)-1H-indol-3-ylsulfanyl]-benzoic acid]: less than 300 nM; for `COc1cccc2[nH]c(C)c(Sc3cccc(CC(=O)O)c3)c12` [Compound 3-6, [3-(4-Methoxy-2-methyl-1H-indol-3-ylsulfanyl)-phenyl]-acetic acid]: more than 1000 nM.
